Measured values from patent US3974140A, “Ureidoacetamido-penicillins” (Bayer Aktiengesellschaft, priority 1970, dated 1976).
Where “and” joins values, the source holds several entries; their conditions need not be identical. Identical values can stand only once.

How the values were obtained:
E. coli C 165 = assay: MIC, liquid medium test tube series dilution test; type: cell-based; conditions: E. coli C 165, 24 hours, 37°C
Summary of the method: (§1)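 Read-out: visual turbidity after 24 h at 37°C. The MIC, in units/ml, corresponds to the non-turbid tube in a liquid-medium test tube dilution series prepared in complete nutrient medium.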

Klebsiella 63 = assay: MIC, liquid medium test tube series dilution test; type: cell-based; conditions: Klebsiella 63, 24 hours, 37°C
Summary of the method: as §1

Klebsiella K 10 = assay: MIC, liquid medium test tube series dilution test; type: cell-based; conditions: Klebsiella K 10, 24 hours, 37°C
Summary of the method: as §1

E. coli 183/58 = assay: MIC, liquid medium test tube series dilution test; type: cell-based; conditions: E. coli 183/58, 24 hours, 37°C
Summary of the method: as §1

[1] = test system: Streptoc. faec. ATCC 9790; assay: MIC, liquid medium test tube series dilution test; type: cell-based; conditions: Strep. faec. (Enterococcus) ATCC 9790, 24 hours, 37°C
Summary of the method: as §1

E. coli A 261 = assay: MIC, liquid medium test tube series dilution test; type: cell-based; conditions: E. coli A 261, 24 hours, 37°C
Summary of the method: as §1

E. coli 14 = assay: MIC, liquid medium test tube series dilution test; type: cell-based; conditions: E. coli 14, 24 hours, 37°C
Summary of the method: as §1

Psdm. aerug. Walter = assay: MIC, liquid medium test tube series dilution test; type: cell-based, Pseudomonas aerug.; conditions: 24 hours, 37°C
Summary of the method: as §1

Psdm. aerug. Bonn = assay: MIC, liquid medium test tube series dilution test; type: cell-based, Pseudomonas aerug.; conditions: 24 hours, 37°C
Summary of the method: as §1

[2] = test system: Gram-negative and Gram-positive bacteria; assay: Antibacterial effect, general statements; conditions: MIC comparison
Proteus vulg. 1017 = assay: MIC, liquid medium test tube series dilution test; type: cell-based, Proteus vulgaris; conditions: Proteus vulg. 1017, 24 hours, 37°C
Summary of the method: as §1

Proteus vulg. 3400 = assay: MIC, liquid medium test tube series dilution test; type: cell-based, Proteus vulgaris; conditions: Proteus vulg. 3400, 24 hours, 37°C
Summary of the method: as §1

Staph. aureus 133 = assay: MIC, liquid medium test tube series dilution test; type: cell-based, Staphylococcus aureus; conditions: Staph. aureus 133, 24 hours, 37°C
Summary of the method: as §1

Staph. aureus 1777 E = assay: MIC, liquid medium test tube series dilution test; type: cell-based, Staphylococcus aureus; conditions: 24 hours, 37°C
Summary of the method: as §1

[3] = Acute toxicity (LD50), intravenous injection into the vein of the tail; type: in vivo; conditions: mouse, in vivo, iv; i.v. into tail vein, white mice
From the text: Acute toxicity (LD50) in white mice after
intravenous injection into the vein of the […]

CN(C(=O)N[C@@H](C(=O)N[C@@H]1C(=O)N2[C@@H]1SC(C)(C)[C@@H]2C(=O)O)c1ccccc1)C(=O)OC1CCCCC1 [Example 29, Sodium D(-)-α-(3-cyclohexyloxycarbonyl-3-methyl-ureido)-benzylpenicillin]
MIC (E. coli C 165): 6.3 units/ml
MIC (E. coli C 165; listed as (A) of Example 29): 6.25 units/ml
MIC (Klebsiella 63): 100 units/ml
MIC (Klebsiella K 10): 200 units/ml
MIC (Klebsiella K 10; listed as (A) of Example 29): 200 units/ml
MIC (E. coli 183/58): 3.1 units/ml
MIC (E. coli 183/58; listed as (A) of Example 29): 3.12 units/ml
MIC [1]: 100 units/ml
MIC (E. coli A 261): > 400 units/ml
MIC (E. coli A 261; listed as (A) of Example 29): 400 units/ml
MIC (E. coli 14): 3.1 units/ml
MIC (Psdm. aerug. Walter): 50 units/ml
MIC (Psdm. aerug. Bonn): 25 units/ml
Biological activity compared between penicillin (A) and penicillin (B) [2]: identical within the limit of error
MIC (Proteus vulg. 1017): 12.5 units/ml
MIC (Proteus vulg. 1017; listed as (A) of Example 29): 12.5 units/ml
MIC (Proteus vulg. 3400): 12.5 units/ml
MIC (Proteus vulg. 3400; listed as (A) of Example 29): 12.5 units/ml
MIC (Staph. aureus 133): < 0.8 units/ml
MIC (Staph. aureus 133; listed as (A) of Example 29): < 0.7 units/ml
MIC (Staph. aureus 1777 E): 200 units/ml
MIC (Staph. aureus 1777 E; listed as (A) of Example 29): 200 units/ml

C=CCOC(=O)N(C)C(=O)N[C@@H](C(=O)N[C@@H]1C(=O)N2[C@@H]1SC(C)(C)[C@@H]2C(=O)O)c1ccccc1 [Example 30, Sodium D(-)-α-(3-allyloxycarbonyl-3-methyl-ureido)-benzylpenicillin]
MIC (E. coli C 165): 20-100 units/ml
MIC (E. coli C 165; listed as (A) of Example 30): 4-20 units/ml
MIC (Klebsiella 63): 20-100 units/ml and 100-500 units/ml
MIC (Klebsiella K 10): 20-100 units/ml and 100-500 units/ml
MIC (E. coli 183/58): 20-100 units/ml
MIC (E. coli 183/58; listed as (A) of Example 30): 4-20 units/ml
MIC [1]: 20-100 units/ml
MIC (E. coli A 261): > 500 units/ml
MIC (E. coli A 261; listed as (A) of Example 30): 100-500 units/ml
MIC (E. coli 14): 4-20 units/ml
MIC (E. coli 14; listed as (A) of Example 30): 0.8-4 units/ml
MIC (Psdm. aerug. Walter): 100-500 units/ml
MIC (Psdm. aerug. Walter; listed as (A) of Example 30): 20-100 units/ml
MIC (Psdm. aerug. Bonn): 100-500 units/ml
MIC (Psdm. aerug. Bonn; listed as (A) of Example 30): 4-20 units/ml
Biological activity compared between penicillin (A) and penicillin (B) [2]: identical within the limit of error
MIC (Proteus vulg. 1017): 100-500 units/ml
MIC (Proteus vulg. 1017; listed as (A) of Example 30): 20-100 units/ml
MIC (Proteus vulg. 3400): 100-500 units/ml and 20-100 units/ml
MIC (Staph. aureus 133): 0.8-4 units/ml
MIC (Staph. aureus 133; listed as (A) of Example 30): 0.8-4 units/ml

CCN(C(=O)N[C@@H](C(=O)N[C@@H]1C(=O)N2[C@@H]1SC(C)(C)[C@@H]2C(=O)O)c1ccccc1)C(=O)c1ccccc1 [Example 60, Sodium D(-)-α-(3-benzoyl-3-ethyl-ureido)-benzylpenicillin]
MIC (E. coli C 165): 25 units/ml
MIC (Klebsiella 63): 50 units/ml
MIC (Klebsiella K 10): 100 units/ml
MIC (E. coli 183/58): 12.5 units/ml
MIC [1]: 100 units/ml
MIC (E. coli A 261): > 400 units/ml
MIC (E. coli 14): 6.25 units/ml
MIC (Psdm. aerug. Walter): 50 units/ml
MIC (Psdm. aerug. Bonn): 25 units/ml
MIC (Proteus vulg. 1017): 25 units/ml
MIC (Proteus vulg. 3400): 50 units/ml
LD50 [3]: 1500 mg/kg
MIC (Staph. aureus 133): < 0.78 units/ml
MIC (Staph. aureus 1777 E): 50 units/ml
